In patent US9573913B2, “Cathepsin cysteine protease inhibitors” (Merck Sharp & Dohme Corp., priority 2013, dated 2017) one finds IC50 data, which are given here for 21 molecules.

Bounds are passed on as bounds.

In one experiment the target is human cathepsin K (UniProt P43236). In words: Cathepsin K Assay (hrbCat K). Type of experiment: biochemical. The note with it: Z-Leu-Arg-AMC substrate, pH 5.5, 15 min preincubation; read-out: hrbCat K (IP (nM)). The method in brief: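 Human cathepsin K (0.4 nM) was preincubated 15 min at room temperature with compound in 50 mM MES pH 5.5, 2.5 mM EDTA, 2.5 mM DTT and 10% DMSO. Inhibition was fitted to a dose-response model.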

Another experiment concerns the target T1, human cathepsin F (Homo sapiens, UniProt Q9UBX1).
T1 sequence (Q9UBX1 271-484): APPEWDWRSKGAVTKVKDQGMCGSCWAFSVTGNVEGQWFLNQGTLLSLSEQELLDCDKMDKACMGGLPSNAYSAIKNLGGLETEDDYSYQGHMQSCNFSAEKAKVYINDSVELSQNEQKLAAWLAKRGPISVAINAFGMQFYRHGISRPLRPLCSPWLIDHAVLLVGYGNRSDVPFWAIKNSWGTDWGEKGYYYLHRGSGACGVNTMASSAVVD
In words: Cathepsin F assay (hCat F). The note with it: Z-Phe-Arg-AMC substrate, pH 5.5, 15 min preincubation; read-out: hCat F (IP (nM)). It counts as biochemical. Summed up: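 AMC release from Z-Phe-Arg-AMC, added at 8 μM, was monitored fluorometrically (360/460 nm) for 20 min after 10 nM enzyme and compound had been preincubated 15 min at room temperature. Buffer: MES 50 mM pH 5.5, EDTA and DTT 2.5 mM each, 10% DMSO. Compound DMSO dilutions spanned 500–0.025 μM (3-fold). Dose-response fitting gave % inhibition.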

With `CS(=O)(=O)c1ccc(-c2oc(-c3ccc(F)cc3)nc2C2CCC(F)(F)CC2C(=O)NCC#N)cc1` (racemic) [Example 163, (1R,2R and 1S,2S)-N-(cyanomethyl)-5,5-difluoro-2-(2-(4-fluorophenyl)-5-(4-(methylsulfonyl)phenyl)oxazol-4-yl)cyclohexane-carboxamide], the IC50 on human cathepsin K came to 2.9 nM; at human cathepsin F it was 26 nM.
Consider `Cc1nc([C@@H]2CC[C@H](F)C[C@H]2C(=O)N[C@@H](C)C#N)c(-c2ccc(N3CCC(F)(F)CC3)cc2)s1` [Example 239, (1R,2R,5S)-N-((S)-1-cyanoethyl)-2-(5-(4-(4,4-difluoropiperidin-1-yl)phenyl)-2-methylthiazol-4-yl)-5-fluorocyclohexane-carboxamide], for which the IC50 at human cathepsin K turned out to be 8.5 nM; at human cathepsin F it was 5340 nM.
Taken in the same sequence, the figures for `C[C@@H](C#N)NC(=O)[C@@H]1C[C@@H](F)CC[C@H]1c1nc(-c2ccc(F)cn2)sc1-c1ccc(N2CCS(=O)(=O)CC2)cc1` [Compound 8, (1R,2R,5S)-N—((S)-1-Cyanoethyl)-2-(5-(4-(1,1-dioxidothiomorpholino)phenyl)-2-(5-fluoropyridin-2-yl)thiazol-4-yl)-5-fluorocyclohexanecarboxamide] were 1.3 nM and 1100 nM.
Taken in the same sequence, the figures for `N#CC1(NC(=O)[C@@H]2CC3CC3C[C@H]2c2nc(-c3ccc(F)cn3)sc2-c2ccc(N3CCS(=O)(=O)CC3)cc2)CC1` (single isomer, unassigned) [Example 105, (1R or 1S,3R,4R,6S or 6R)-N-(1-cyanocyclopropyl)-4-(5-(4-(1,1-dioxidothiomorpho-lino)phenyl)-2-(5-fluoropyridin-2-yl)thiazol-4-yl)bicyclo[4.1.0] heptane-3-carboxamide] were 0.8 nM and 371 nM.
Taken in the same sequence, the figures for `N#CC1(NC(=O)[C@@H]2CCCC[C@H]2c2nc(-c3ncccn3)sc2-c2ccc(N3CCS(=O)(=O)CC3)cc2)CC1` [Example 70, (1R,2R)-N-(1-cyanocyclopropyl)-2-(5-(4-(1,1-dioxidothiomorpho-lino)phenyl)-2-(pyrimidin-2-yl)thiazol-4-yl)cyclohexane-carboxamide] were 27.1 nM and at least 10000 nM.
For the molecule `Cc1nc([C@@H]2CC[C@H](F)C[C@H]2C(=O)NC2(C#N)CC2)c(-c2ccc(N3CCOCC3)cc2)s1` [Compound 9, (1R,2R,5S)-N-(1-cyanocyclopropyl)-5-fluoro-2-(2-methyl-5-(4-morpholinophenyl)thiazol-4-yl)cyclohexanecarboxamide], the IC50 was 44.1 nM at human cathepsin K and at least 10000 nM on human cathepsin F.
In the same order, the values of `Cc1nc(C2CCCCC2C(=O)NCC#N)c(-c2ccc(N3CCS(=O)(=O)CC3)cc2)s1` (racemic) [Example 245, N-(cyanomethyl)-2-(5-(4-(1,1-dioxidothiomorpho-lino)phenyl)-2-methylthiazol-4-yl)cyclohexane-carboxamide] are 5.4 nM and 3280 nM.
In the same order, the values of `Cn1cc(-c2nc([C@@H]3CCCC[C@H]3C(=O)NC3(C#N)CC3)c(-c3ccc(N4CCS(=O)(=O)CC4)cc3)s2)ccc1=O` [Example 53, (1R,2R)-N-(1-cyanocyclopropyl)-2-(5-(4-(1,1-dioxidothiomorpho-lino)phenyl)-2-(1-methyl-6-oxo-1,6-dihydropyridin-3-yl)thiazol-4-yl)cyclohexane-carboxamide] are 3.8 nM and 2770 nM.
In the same order, the values of `N#CC1(NC(=O)[C@@H]2CCCC[C@H]2c2nc(-c3ccc(C(F)(F)F)cn3)sc2-c2ccc(N3CCS(=O)(=O)CC3)cc2)CC1` [Example 90, (1R,2R)-N-(1-cyanocyclopropyl)-2-(5-(4-(1,1-dioxidothiomorpho-lino)phenyl)-2-(5-(trifluoromethyl)pyridin-2-yl)thiazol-4-yl)cyclohexane-carboxamide] are 2.2 nM and 1280 nM.
Take `CN=S1(=O)CCN(c2ccc(-c3sc(-c4ccc(F)cn4)nc3[C@@H]3CCCC[C@H]3C(=O)NC3(C#N)CC3)cc2)CC1` [Example 139, (1R,2R)-N-(1-cyanocyclopropyl)-2-(2-(5-fluoropyridin-2-yl)-5-(4-(1-(methylimino)-1-oxidothiomorpholino)phenyl)thiazol-4-yl)cyclohexane-carboxamide]: the figures for the IC50 at human cathepsin K and at human cathepsin F were 3.3 nM and 2750 nM, respectively.
Taken in the same sequence, the figures for `N#CC1(NC(=O)[C@@H]2C[C@H](F)CC[C@H]2c2nc(-c3ccc(F)cc3)sc2-c2ccc(N3CCS(=O)(=O)CC3)cc2)CC1` [Example 45, (1R,2R,5R)-N-(1-cyanocyclopropyl)-2-(5-(4-(1,1-dioxidothiomorpho-lino)phenyl)-2-(4-fluorophenyl)thiazol-4-yl)-5-fluorocyclohexane-carboxamide] were 1.5 nM and 197 nM.
Taken in the same sequence, the figures for `N#CN=S1(=O)CCN(c2ccc(-c3sc(-c4ccc(F)cc4)nc3[C@@H]3CCCC[C@H]3C(=O)NC3(C#N)CC3)cc2)CC1` [Example 182, (1R,2R)-N-(1-cyanocyclopropyl)-2-(5-(4-(1-(cyanoimino)-1-oxidothiomorpholino)phenyl)-2-(4-fluorophenyl)thiazol-4-yl)cyclohexane-carboxamide] were 2.72 nM and 3330 nM.
Taken in the same sequence, the figures for `Cn1cccc(-c2nc([C@@H]3CCCC[C@H]3C(=O)NC3(C#N)CC3)c(-c3ccc(N4CCS(=O)(=O)CC4)cc3)s2)c1=O` [Example 50, (1R,2R)-N-(1-cyanocyclopropyl)-2-(5-(4-(1,1-dioxidothiomorpho-lino)phenyl)-2-(1-methyl-2-oxo-1,2-dihydropyridin-3-yl)thiazol-4-yl)cyclohexane-carboxamide] were 1.9 nM and 879 nM.
Take `C[C@@H](C#N)NC(=O)[C@@H]1CCCC[C@H]1c1nc(C(C)(C)CO)sc1-c1ccc(N2CCS(=O)(=O)CC2)cc1` [Example 225, (1R,2R)-N-((S)-1-cyanoethyl)-2-(5-(4-(1,1-dioxidothiomorpho-lino)phenyl)-2-(1-hydroxy-2-methylpropan-2-yl)thiazol-4-yl)cyclohexane-carboxamide]: the IC50 turned out to be 1.6 nM on human cathepsin K and 1040 nM at human cathepsin F.
In the same order, the values of `N#CC1(NC(=O)[C@@H]2CCCC[C@H]2c2nc(-c3ccc(F)cn3)sc2-c2ccc(N3CCS(=O)(=O)CC3)cc2)CC1` [Example 47, (1R,2R)-N-(1-cyanocyclopropyl)-2-(5-(4-(1,1-dioxidothiomorpho-lino)phenyl)-2-(5-fluoropyridin-2-yl)thiazol-4-yl)cyclohexane-carboxamide] are 1.3 nM and 1520 nM.
On to `N#CC1(NC(=O)[C@@H]2CCCC[C@H]2c2nc(-c3cncc(Cl)c3)sc2-c2ccc(N3CCS(=O)(=O)C4(CC4)C3)cc2)CC1` [Example 76, (1R,2R)-2-(2-(5-chloropyridin-3-yl)-5-(4-(4,4-dioxido-4-thia-7-azaspiro[2.5]octan-7-yl)phenyl)thiazol-4-yl)-N-(1-cyanocyclopropyl) cyclohexanecarbox-amide], for which the IC50 at human cathepsin K came out at 1.8 nM; at human cathepsin F it was 1000 nM.
In the same order, the values of `N#CC1(NC(=O)[C@@H]2CC(F)(F)CC[C@H]2c2nc(-c3ccc(F)cc3)oc2-c2ccc(N3CCS(=O)(=O)CC3)cc2)CC1` [Example 165, (1R,2R)-N-(1-cyanocyclopropyl)-2-(5-(4-(1,1-dioxidothiomorpho-lino)phenyl)-2-(4-fluorophenyl)oxazol-4-yl)-5,5-difluorocyclohexane-carboxamide] are 0.6 nM and 61 nM.
Consider `N#CC1(NC(=O)[C@@H]2CCCC[C@H]2c2nc(-c3ccc(F)cc3)sc2-c2ccc(C(=O)N3CCC(O)CC3)cc2)CC1` [Example 34, (1R,2R)-N-(1-cyanocyclopropyl)-2-(2-(4-fluorophenyl)-5-(4-(4-hydroxypiperidine-1-carbonyl)phenyl)thi-azol-4-yl)cyclohexane-carboxamide], for which the IC50 worked out at 101 nM at human cathepsin K and 868 nM on human cathepsin F.
Taken in the same sequence, the figures for `N#CC1(NC(=O)[C@@H]2CCCC[C@H]2c2nc(N3CCOC(c4ccccc4)C3)sc2-c2ccc(N3CCS(=O)(=O)CC3)cc2)CC1` (stereo partly drawn) [Example 103, (1R,2R)-N-(1-cyanocyclopropyl)-2-(5-(4-(1,1-dioxidothiomorpho-lino)phenyl)-2-(2-phenylmorpholino)thiazol-4-yl)cyclohexane-carboxamide] were 1.2 nM and 1000 nM.
`N#CC1(NC(=O)[C@@H]2CCCC[C@H]2c2nc(C(F)(F)c3ccccc3)sc2-c2ccc(N3CCS(=O)(=O)CC3)cc2)CC1` [Example 183, (1R,2R)-N-(1-cyanocyclopropyl)-2-(2-(difluoro(phenyl)methyl)-5-(4-(1,1-dioxidothiomorpho-lino)phenyl)thiazol-4-yl)cyclohexane-carboxamide]: the IC50 worked out at 5.7 nM at human cathepsin K and 810 nM at human cathepsin F.
In the case of `N#CC1(NC(=O)[C@@H]2CC(F)(F)CC[C@H]2c2nc(CC(F)(F)F)sc2-c2ccc(N3CCS(=O)(=O)CC3)cc2)CC1` [Example 21, (1R,2R)-N-(1-cyanocyclopropyl)-2-(5-(4-(1,1-dioxidothiomorpho-lino)phenyl)-2-(2,2,2-trifluoroethyl)thia-zol-4-yl)-5,5-difluorocyclohexane-carboxamide], the IC50 on human cathepsin K was 1.6 nM; on human cathepsin F it was 314 nM.
